Measured values published in PMC9995496, “A screen for MeCP2-TBL1 interaction inhibitors using a luminescence-based assay” (Scientific Reports, 2023).
Where two headings read alike, the source gives them in different places.

System: PRKACA-PRKAR2A interaction (SmBiT-PRKACA / LgBiT-PRKAR2A), protein kinase A
Design: NanoLuc complementation counter-screen in cell extract, PRKACA with PRKAR2A, loss of luminescence, detects NanoLuc interference
Conditions: 0.5 h, 20 µM, inhibitor
[1] = counter-screen for NanoLuc interference
[2] = counter-screen for NanoLuc interference, Inh (PKA)

Row | Inh (PKA) [1] [%] | SMILES | other results
1 | 5.257 | CN(C)C(=O)c1cc2cnc(Nc3ccc(N4CCNCC4)cn3)nc2n1C1CCCC1 [UM0142108:01, LEE011] | –
2 | 3.507 | CCCCCOC(=O)Nc1nc(=O)n([C@@H]2O[C@H](C)[C@@H](O)[C@H]2O)cc1F [UM0142109:01, Capecitabine] | –
3 | 1.3 | N#C[C@@H]1C[C@@H]2C[C@@H]2N1C(=O)[C@@H](N)C12CC3CC(CC(O)(C3)C1)C2 [UM0142110:01, Saxagliptin] | –
4 | 15.15 | Cc1nn(-c2ccccc2)c(C)c1/C=N/N1CCN(Cc2ccccc2)CC1 [UM0142111:01, SANT-1] | –
5 | 0.5722 | CC(C)[C@H]1C(=O)N[C@@H](CCCNC(=N)N)C(=O)NCC(=O)N[C@@H](CC(=O)O)C(=O)N[C@H](Cc2ccccc2)C(=O)N1C [UM0142112:01, Cilengitide] | –
6 | 2.979 | O=C1NCCCc2c1oc1ccc(O)cc21 [UM0142113:01, CID 755673] | –
7 | 18.6 | CC[C@@H](N)CNc1ccnc(-c2cc(-c3cnn(C)c3)ccc2O)n1 [UM0142114:01, CRT 0066101] | –
8 | 8.434 | O=c1ncn2nc(Sc3ccc(F)cc3F)ccc2c1-c1c(Cl)cccc1Cl [UM0142117:01, VX-745] | –
9 | 63.93 | CN(c1ccccc1CNc1nc(Nc2ccc3c(c2)CC(=O)N3)ncc1C(F)(F)F)S(C)(=O)=O [UM0142118:01, PF-431396] | –
10 | 39.19 | FC(F)(F)Oc1ccc2nc(-c3ccc(OCCOCCOc4ccc(-c5nc6ccc(OC(F)(F)F)cc6[nH]5)nc4)cn3)[nH]c2c1 [UM0142119:01, AI-10-49] | –
11 | 9.452 | C=CC(=O)Nc1ccc(CN2C(=O)N(c3cc(OC)cc(OC)c3)Cc3cnc(Nc4ccc(N5CCN(C)CC5)cc4)nc32)cc1 [UM0142120:01, FIIN-2] | –
12 | 12.44 | CC(C)(C)C(O)/C=C/c1ccc2c(c1)OCO2 (stereo not drawn) [UM0142121:01, Stiripentol] | –
13 | 48.23 | C=CC(=O)Nc1cccc(C)c1Nc1ncc2cc(-c3c(Cl)c(OC)cc(OC)c3Cl)ccc2n1 [UM0142122:01, BLU9931] | –
14 | 33.39 | CCCC[S+]([O-])c1sc2nc(-c3cccs3)cc(-c3ccccc3)c2c1N (stereo not drawn) [UM0142124:01, SW033291] | –
15 | 5.399 | CC(C)(CCCCCC(O)CCCCCC(C)(C)C(=O)O)C(=O)O [UM0142125:01, ETC-1002] | –
16 | 34.96 | CNC(=O)c1ccccc1Oc1nc(Nc2cc(OC)c(OC)c(OC)c2)ncc1Br [UM0142126:01, SBI-0206965] | –
17 | 13.32 | CNc1ncc2cc(-c3cc(NC(=O)NCCC(C)(C)C)c(F)cc3C)c(C)nc2n1 [UM0142127:01, LY3009120] | –
18 | 74.86 | CN(C)C/C=C/C(=O)Nc1cccc(C(=O)Nc2cccc(Nc3ncc(Cl)c(-c4c[nH]c5ccccc45)n3)c2)c1 [UM0142128:01, THZ2] | –
19 | 3.385 | CN1CCN(C(=O)c2ccc3cc(CCNc4ncnc5ccc(C#N)cc45)ccc3c2)CC1 [UM0142129:01, Senexin B] | –
20 | 6.005 | CN1C(=O)c2sccc2N(C)c2nc(Nc3ccc(S(N)(=O)=O)cc3)ncc21 [UM0142130:01, XMU-MP-1] | –
21 | 20.59 | Cc1c(-c2c(-c3ccc(F)o3)sc3ncnc(O[C@H](Cc4ccccc4OCc4ccnn4CC(F)(F)F)C(=O)O)c23)ccc(OCCN2CCN(C)CC2)c1Cl [UM0142131:01, S63845] | –
22 | 4.343 | COc1ccc(S(=O)(=O)N2CCC(N3CCC(C)CC3)CC2)cc1 [UM0142132:01, TASIN-1] | –
23 | 13.04 | Cn1c2ccccc2c2c3c(c4c5ccccc5n(CCC#N)c4c21)C(=O)NC3=O [UM0142134:01, ICP 103] | –
24 | 7.983 | Nc1cc(F)ccc1NC(=O)/C=C/c1cnn(C/C=C/c2ccccc2)c1 [UM0142135:01, RGFP966] | –

Row | Inh (PKA) [1] [%] | SMILES | other results
25 | 21.99 | O=C(NCC1(c2nc(-c3ccccc3)cs2)CCOCC1)c1cccc(-c2noc(C(F)(F)F)n2)c1 [UM0142136:01, TMP269] | –
26 | 20.15 | O=C(c1cccc(Cl)c1F)N1CCN(Cc2cccc(Nc3nccs3)n2)CC1 [UM0142137:01, MK-8745] | –
27 | 37.99 | CSc1cccc(Nc2ncc3cc(-c4c(Cl)cccc4Cl)c(=O)n(C)c3n2)c1 [UM0142139:01, PD173955] | –
28 | 8.181 | CCCCCCCCCCCCCCCCn1cc[n+](Cc2ccccc2)c1C [UM0142140:01, NH125] | –
29 | 33.46 | C=CC(=O)Nc1cccc(Oc2nc(Nc3ccc(N4CCN(C)CC4)cc3)ncc2Cl)c1 [UM0142142:01, WZ3146] | –
30 | 81.51 | CN(C)C/C=C/C(=O)Nc1ccc(C(=O)Nc2cccc(Nc3ncc(Cl)c(-c4c[nH]c5ccccc45)n3)c2)cc1 [UM0142143:01, THZ1] | –
31 | 7.192 | C[C@@H]1COCCN1c1cc(=O)n2c(n1)N(Cc1cncc(Cl)c1)[C@H](C(F)(F)F)CC2 [UM0142144:01, SAR405] | –
32 | 23.14 | O=C1N=C(NCc2cccs2)S/C1=C\c1ccc2ncccc2c1 [UM0142145:01, Ro 3306] | –
33 | 37.05 | CN1CCC(Nc2nc(Nc3ccc(Oc4ccccc4)cc3)c3c(=O)[nH]cc(Br)c3n2)CC1 [UM0142146:01, G-749] | –
34 | 10.88 | Cc1nc(Nc2cnn(C3CCNCC3)c2)nc2c1N(C)C(=O)c1cc3ccccc3cc1N2C [UM0142147:01, HTH-01-015] | –
35 | – | CN(Cc1cccc(-c2ccncc2)c1)C(=O)Oc1ccc(-c2ccc(C(N)=O)cc2)cc1 [UM0142148:01, WWL 70] | Inh (PKA): 11.8%
36 | – | CNCc1ccc(-c2[nH]c3cc(F)cc4c3c2CCNC4=O)cc1 [UM0142149:01, Rucaparib (free base)] | Inh (PKA) [2]: 8.491%
37 | 2.926 | COC(=O)C[C@H](NC(=O)[C@H](C)NC(=O)[C@@H](NC(=O)[C@H](Cc1ccc(O)cc1)NC(=O)OCc1ccccc1)C(C)C)C(=O)CF [UM0142151:01, Z-YVAD-FMK] | –
38 | 14.94 | Cc1nn(C)c2c1C(c1ccc(C(F)(F)F)cc1)C(C#N)=C(N)O2 (stereo not drawn) [UM0142152:01, BQU57] | –
39 | 1.529 | O=CC[C@@H](O)[C@H](O)[C@H](O)CO [UM0142158:01, 2-Deoxy-D-glucose] | –
40 | 0.5125 | Cc1c(-c2ccnn2C)cc(C(=O)NCc2ccc(S(C)(=O)=O)cn2)c(=O)n1-c1cccc(C(F)(F)F)c1 [UM0142161:01, Alvelestat] | –
41 | 18.1 | O=C(O)c1ccc(-c2c[nH]c3ncc(-c4ccccc4)cc23)cc1C1CCCC1 [UM0142163:01, GSK 650394] | –
42 | – | CCOC(=O)[C@H](C)C[C@@H](Cc1ccc(-c2ccccc2)cc1)NC(=O)CCC(=O)O [UM0142165:01, AHU-377(Sacubitril)] | Inh (PKA) [2]: 9.484%
43 | 65.56 | COc1ccc(-c2ccccc2)cc1NS(=O)(=O)c1cc(Cl)cc(Cl)c1O [UM0142166:01, BMS-303141] | –
44 | 14.04 | COc1cccc(OCCCN)c1-c1cc(Nc2cnc(C#N)cn2)n[nH]1 [UM0142169:01, LY2606368] | –
45 | 6.598 | C=CC(=O)Nc1cc(Nc2nccc(-c3cn(C)c4ccccc34)n2)c(OC)cc1N(C)CCN(C)C [UM0142170:01, AZD-9291] | –
46 | 17.24 | CC(C)Nc1cc(-c2c[nH]c(C(=O)N[C@H](CO)c3cccc(Cl)c3)c2)c(Cl)cn1 [UM0142171:01, VRT752271] | –
47 | 4.784 | Cc1cc(C(N)=O)ccc1-n1c(CCC(=O)O)ccc1-c1ccc(-n2ccnc2)cc1 [UM0142172:01, N6022] | –
48 | 28.05 | COc1cc(NC(=O)Nc2cccc(CNC(=O)O[C@H]3CCOC3)c2)ccc1-c1cnco1 [UM0142173:01, Merimepodib] | –
